Source: patent US8722665B2, “Cinnamido-pyrrolo[2,1-C][1,4]benzodiazepines as potential anticancer agents and process for the preparation thereof” (Council of Scientific & Industrial Research, priority 2008, dated 2014)

Assays:
[1] = tested on: duplex-form calf thymus DNA (CT-DNA); experiment: Thermal denaturation studies with calf thymus DNA; type: binding; conditions: [PBD]:[DNA] molar ratio 1:5, CT-DNA 100 μM, ligand 20 μM, pH 7.00
Method: Compounds have been subjected to thermal denaturation studies with duplex-form calf thymus DNA (CT-DNA) using an modification of a reported procedure (Newman, M. S. Carcinog-compr. Surv. 1976, 1, 203; (b) Hecht, S. S.; Loy, M.; Hoffman, Carcinog-compr. Surv. 1976, 1, 325). Working solutions in aqueous buffer (10 mM NaH2PO4/Na2HPO4, 1 mM Na2EDTA, pH 7.00+0.01) containing CT-DNA (100 μm in phosphate) and the PBD (20 μm) have been prepared by addition of concentrated PBD solutions in DMSO to obtain a fixed [PBD]/[DNA] molar ratio of 1:5. The DNA-PBD solutions have been incubated at 37° C. for 0 and 18 h prior to analysis. Samples have been monitored at 260 nm using a Beckman DU-800 spectrophotometer fitted with high performance temperature controller, and heated at 1° C. min^−1 in the 40-110° C. range. DNA helix→coil transition temperatures (Tm) have been obtained from the maxima in the d(A260)/dT derivative plots. Drug-induced alterations in DNA melting behavior are given by: ΔTm=Tm(DNA+PBD)−Tm(DNA alone), where the Tm value for the PBD-free CT-DNA is 69.1±0.01.
The DNA binding activity for these Cinnamido-pyrrolo[2,1-c][1,4]benzodiazepines have been examined by thermal denaturation studies using calf thymus (CT) DNA. […] The data for the compounds 8b&d, 11b&d, 14b&d and 17b&d is included in Table 1 for comparison.

Breast cell lines = experiment: In vitro cytotoxicity (SRB), cancer panel; type: cell-based, human; conditions: average of six to eight cell lines, 48 h exposure
Method: (§1) The compounds were evaluated for in vitro anticancer activity against sixty human tumour cells derived from nine cancer types (leukemia, non-small-cell lung, colon, CNS, melanoma, ovarian, prostate, and breast cancer) as shown in Table 1a. For each compound, dose response curves for each cell line were measured at a minimum of five concentrations at 10 fold dilutions. A protocol of 48 h continuous drug exposure was used and a sulforhodamine B (SRB) protein assay was used to estimate cell viability or growth. The concentration causing 50% cell growth inhibition (GI50), total cell growth inhibition (TGI 0% growth) and 50% cell death (LC50, −50% growth) compared with the control was calculated. The Log10 GI50 (concentration in mol/L causing 50% growth inhibition) values for Cinnamido-pyrrolo[2,1-c][1,4]benzodiazepine (8b) is listed in Table 2.

CNS cell lines = experiment: In vitro cytotoxicity (SRB), cancer panel; type: cell-based, human; conditions: average of six to eight cell lines, 48 h exposure
Method: as §1

Colon cell lines = experiment: In vitro cytotoxicity (SRB), cancer panel; type: cell-based, human; conditions: average of six to eight cell lines, 48 h exposure
Method: as §1

Leukemia cell lines = experiment: In vitro cytotoxicity (SRB), cancer panel; type: cell-based, human; conditions: average of six to eight cell lines, 48 h exposure
Method: as §1

Melanoma cell lines = experiment: In vitro cytotoxicity (SRB), cancer panel; type: cell-based, human; conditions: average of six to eight cell lines, 48 h exposure
Method: as §1

[2] = tested on: Non-small-cell lung cell lines; experiment: In vitro cytotoxicity (SRB), cancer panel; type: cell-based, human; conditions: average of six to eight cell lines, 48 h exposure
Method: as §1

Ovarian cell lines = experiment: In vitro cytotoxicity (SRB), cancer panel; type: cell-based, human; conditions: average of six to eight cell lines, 48 h exposure
Method: as §1

Prostate cell lines = experiment: In vitro cytotoxicity (SRB), cancer panel; type: cell-based, human; conditions: average of six to eight cell lines, 48 h exposure
Method: as §1

Renal cell lines = experiment: In vitro cytotoxicity (SRB), cancer panel; type: cell-based, human; conditions: average of six to eight cell lines, 48 h exposure
Method: as §1

A549/ATCC = experiment: In vitro cytotoxicity (SRB); type: cell-based, human; conditions: A549/ATCC (Non-small cell lung); 48 h continuous drug exposure
Method: as §1

COLO 205 = experiment: In vitro cytotoxicity (SRB); type: cell-based, human; conditions: COLO 205 (Colon); 48 h continuous drug exposure
Method: as §1

EKVX = experiment: In vitro cytotoxicity (SRB); type: cell-based, human; conditions: EKVX (Non-small cell lung); 48 h continuous drug exposure
Method: as §1

HCT-15 = experiment: In vitro cytotoxicity (SRB); type: cell-based, human; conditions: HCT-15 (Colon); 48 h continuous drug exposure
Method: as §1

KM12 = experiment: In vitro cytotoxicity (SRB); type: cell-based, human; conditions: KM12 (Colon); 48 h continuous drug exposure
Method: as §1

M14 = experiment: In vitro cytotoxicity (SRB); type: cell-based, human; conditions: M14 (Melanoma); 48 h continuous drug exposure
Method: as §1

MCF7 = experiment: In vitro cytotoxicity (SRB); type: cell-based, human; conditions: MCF7 (Breast); 48 h continuous drug exposure
Method: as §1

MDA-MB-468 = experiment: In vitro cytotoxicity (SRB); type: cell-based, human; conditions: MDA-MB-468 (Breast); 48 h continuous drug exposure
Method: as §1

OVCAR-4 = experiment: In vitro cytotoxicity (SRB); type: cell-based, human; conditions: OVCAR-4 (Ovarian); 48 h continuous drug exposure
Method: as §1

OVCAR-5 = experiment: In vitro cytotoxicity (SRB); type: cell-based, human; conditions: OVCAR-5 (Ovarian); 48 h continuous drug exposure
Method: as §1

PC-3 = experiment: In vitro cytotoxicity (SRB); type: cell-based, human; conditions: PC-3 (Prostate); 48 h continuous drug exposure
Method: as §1

SF-539 = experiment: In vitro cytotoxicity (SRB); type: cell-based, human; conditions: SF-539 (CNS); 48 h continuous drug exposure
Method: as §1

SN12C = experiment: In vitro cytotoxicity (SRB); type: cell-based, human; conditions: SN12C (Renal); 48 h continuous drug exposure
Method: as §1

SNB-19 = experiment: In vitro cytotoxicity (SRB); type: cell-based, human; conditions: SNB-19 (CNS); 48 h continuous drug exposure
Method: as §1

SNB-75 = experiment: In vitro cytotoxicity (SRB); type: cell-based, human; conditions: SNB-75 (CNS); 48 h continuous drug exposure
Method: as §1

SW-620 = experiment: In vitro cytotoxicity (SRB); type: cell-based, human; conditions: SW-620 (Colon); 48 h continuous drug exposure
Method: as §1

U251 = experiment: In vitro cytotoxicity (SRB); type: cell-based, human; conditions: U251 (CNS); 48 h continuous drug exposure
Method: as §1

UACC-257 = experiment: In vitro cytotoxicity (SRB); type: cell-based, human; conditions: UACC-257 (Melanoma); 48 h continuous drug exposure
Method: as §1

UO-31 = experiment: In vitro cytotoxicity (SRB); type: cell-based, human; conditions: UO-31 (Renal); 48 h continuous drug exposure
Method: as §1

SMILES: COc1cc(/C=C/C(=O)N2CCN(C(=O)c3cc(OC)c(OC)c(OC)c3)CC2)ccc1OCCCOc1cc2c(cc1OC)C(=O)N1CCC[C@H]1C=N2 [8b, 7-methoxy-8-{3-(2-methoxy-4-(E)-3-oxo-3-[4-(3,4,5-trimethoxybenzoyl)piperazino]-1-propenylphenoxy)propoxy}-(11aS)-2,3,5,11^a-tetrahydro-5H-pyrrolo[2,1-c][1,4]benzo-diazepine-5-one]
- (ΔTm ° C.) after incubation at 37° C. for 0 h ([1]; 0 h incubation at 37° C.): 1.2 °C
- (ΔTm ° C.) after incubation at 37° C. for 18 h ([1]; 18 h incubation at 37° C.): 2.1 °C
- Log10 GI50 (Breast cell lines): −6.51 mol/L
- Log10 GI50 (CNS cell lines): −6.78 mol/L
- Log10 GI50 (Colon cell lines): −6.43 mol/L
- Log10 GI50 (Leukemia cell lines): −6.77 mol/L
- Log10 GI50 (Melanoma cell lines): −6.64 mol/L
- Log10 GI50 [2]: −6.31 mol/L
- Log10 GI50 (Ovarian cell lines): −6.36 mol/L
- Log10 GI50 (Prostate cell lines): −6.44 mol/L
- Log10 GI50 (Renal cell lines): −6.20 mol/L
- GI50 (A549/ATCC): 480 nM
- GI50 (COLO 205): 180 nM
- GI50 (EKVX): 860 nM
- GI50 (HCT-15): 3390 nM
- GI50 (KM12): 280 nM
- GI50 (M14): 370 nM
- GI50 (MCF7): 130 nM
- GI50 (MDA-MB-468): 140 nM
- GI50 (OVCAR-4): 2200 nM
- GI50 (OVCAR-5): 290 nM
- GI50 (PC-3): 340 nM
- GI50 (SF-539): 250 nM
- GI50 (SN12C): 330 nM
- GI50 (SNB-19): 330 nM
- GI50 (SNB-75): 260 nM
- GI50 (SW-620): 190 nM
- GI50 (U251): 270 nM
- GI50 (UACC-257): 270 nM
- GI50 (UO-31): 1150 nM
